Drawing on US11117899B2, “[1,2,4]triazolo[1,5-c]pyrimidine derivative as A2A receptor inhibitor” (MEDSHINE DISCOVERY INC., priority 2017, dated 2021), this text covers IC50 for 52 compounds.

Structures are written as SMILES. pIC50: −log10 of the molar value.

In the assay the target is T1, Human adenosine A2A receptor (Homo sapiens, UniProt P29274).
T1 construct: host or cells: CHO
T1 sequence (P29274 whole entry): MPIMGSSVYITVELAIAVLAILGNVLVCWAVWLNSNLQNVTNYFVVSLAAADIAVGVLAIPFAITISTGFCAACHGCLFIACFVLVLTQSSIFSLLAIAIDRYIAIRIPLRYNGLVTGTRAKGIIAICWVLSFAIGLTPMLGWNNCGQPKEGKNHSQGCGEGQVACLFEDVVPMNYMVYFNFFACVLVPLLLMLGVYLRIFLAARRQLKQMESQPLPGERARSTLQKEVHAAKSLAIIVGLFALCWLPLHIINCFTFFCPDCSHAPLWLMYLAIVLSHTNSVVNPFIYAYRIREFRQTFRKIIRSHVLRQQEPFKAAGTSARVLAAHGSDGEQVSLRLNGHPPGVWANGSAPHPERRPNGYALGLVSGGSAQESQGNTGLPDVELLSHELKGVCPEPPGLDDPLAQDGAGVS
As to the kind of experiment: Human adenosine A2A receptor calcium flux assay. As to conditions: A2A stable CHO cell strain, antagonist mode against agonist NECA at EC80, FLIPR Fluo-4. In kind it is cell-based. How it is done:
Human adenosine A2A receptor calcium flux assay
A2A stable cell strain was constructed by Shanghai WuXi PharmaTech, and the host cell was CHO.
Fluo-4 Direct Kit (Invitrogen, Cat. No. F10471). After the fluorescent detection reagent (specifically binding to calcium ions and causing an increase in fluorescence signal) in the kit was incubated with the cells for a suitable period of time, the compound was added to stimulate the cells to cause changes in intracellular calcium flux, thereby causing changes in the fluorescent signal, which can reflect the strength of the agonistic or inhibitory activity of the compound.
F12+10% fetal bovine serum+geneticin 300 ug/ml+blasticidin 2 ug/ml Compound dilution buffer:
Hanks Balanced Salt Buffer (Invitrogen)+20 mM HEPES, configured before each use
The test compounds were dissolved in DMSO to prepare 10 mM stock solutions. The test compounds were diluted to 0.2 mM with DMSO, and the reference compound CGS-15943 was diluted to 0.015 mM with DMSO. Next, 10 points of three-fold serial dilutions were made with ECHO. 900 nl was transferred to the compound plate (Greiner-781280), and 30 ul of compound dilution buffer was added. The final starting concentration of the test compounds was 1 uM and CGS-15943 was 0.075 uM.
Cryopreserved A2A cells were resuscitated, and then resuspended in culture medium to 1×10^6 cells/ml. The suspension was seeded into 384-well polylysine-coated cell plates (Greiner-781946) at 20 μl/well and incubated overnight in a 5% CO2 incubator at 37° C.
The cell plate prepared the day before was taken out from the incubator, and 20 ul of 2× Fluo-4 Direct™ buffer was added to each well. The plate was incubated for 50 minutes in a 5% CO2 incubator at 37° C. and allowed to stand at room temperature for 10 minutes.
Dilution of agonist NECA: 10 points of three-fold serial dilutions were made with Echo for NECA from a starting concentration of 0.15 mM. 900 nL was then transferred to the corresponding compound plate; and then 30 μl of compound dilution buffer was added to the corresponding compound plate. The final starting concentration was 750 nM.
FLIPR instrument software was run. According to the programmed procedure, 10 ul of compound dilution buffer was added to the cell plate and the fluorescence signal was read. 10 ul of the agonist reference compound at the indicated concentration was then added to the cell plate and the fluorescent signal was read. After reading, the data was exported by the “Max-Min”, “Read 90 to Maximum allowed” method in the software, and the EC80 of the A2A cell line was calculated. The agonist was prepared at a concentration of 6× EC80. A 6× EC80 concentration of a reference compound agonist of the corresponding cells was prepared with a buffer solution, and added at 30 ul/well to the corresponding compound plate for use.
FLIPR instrument software was run. According to the programmed procedure, 10 μl of the test compounds and reference compound at an indicated concentration was added to the cell plate and the fluorescence signal was read. 10 ul of the reference compound agonist at a concentration of 6× EC80 was then added to the cell plate and the fluorescent signal was read. For the agonist detection of the compounds, the data was exported by the “Max-Min”, “Read 1 to 90” method in the software. For the antagonist detection of the compound, the data was exported by the “Max-Min”, “Read 90 to Maximum allowed” method in the software. Data were analyzed by GraphPad Prism 5.0 and the IC50 values of the test compounds were calculated.
What is called pIC50 is the negative decadic logarithm of the IC50, by convention in mol/L. Consider `Cc1cc(-c2c(-c3ccccc3)nc(N)n3nc(C(=O)NCc4ccc(F)cc4F)nc23)cc(C)n1` [Example C-18], for which the pIC50 was 8.62.

Consider `Cc1cc(-c2c(-c3ccccc3)nc(N)n3nc(CNC4CC4)nc23)cc(C)n1` [Example C-20], for which the pIC50 is 8.92.

Consider `Cc1cc(-c2c(-c3ccccc3)nc(N)n3nc(C)nc23)cc(Cl)n1` [Example C-21], for which the pIC50 was 9.10.

For `Cc1nc2c(-c3ccc4[nH]nnc4c3)c(-c3ccccc3)nc(N)n2n1` [Example C-22], the pIC50 was 8.53.

Turning to `Nc1nc(-c2ccccc2)c(-c2ccc3[nH]nnc3c2)c2nc(COCc3ccccc3)nn12` [Example C-23], the pIC50 was 8.58.

For the compound `Nc1nc(-c2ccccc2)c(-c2ccc3[nH]nnc3c2)c2nc(CO)nn12` [Example C-24], the pIC50 is 9.02.

Turning to `CCc1nc2c(-c3ccc4[nH]nnc4c3)c(-c3ccccc3)nc(N)n2n1` [Example C-25], the negative-log IC50 (pIC50) is 8.50.

As for `Nc1nc(-c2ccccc2)c(-c2ccc3[nH]nnc3c2)c2nc(C3CC3)nn12` [Example C-26], the negative logarithm of the IC50 (pIC50) was 8.36.

For the compound `COc1ccccc1-c1nc(N)n2nc(C)nc2c1-c1cc(C)nc(C(F)(F)F)c1` [Example C-27], the pIC50 was 8.31.

With `Nc1nc(-c2ccccc2)c(-c2ccc3[nH]nnc3c2)c2nc(C(F)(F)F)nn12` [Example C-29], the pIC50 was 8.82.

For `CCc1nc2c(-c3cc(C)nc(C(F)(F)F)c3)c(-c3ccccc3OC)nc(N)n2n1` [Example C-30], the pIC50 was 8.52.

As for `COc1ccccc1-c1nc(N)n2nc(C(F)(F)F)nc2c1-c1cc(C)nc(C(F)(F)F)c1` [Example C-31], the pIC50 was 7.85.

On to `CCc1nc2c(-c3ccc4nn[nH]c4c3)c(-c3ccccc3OC)nc(N)n2n1` [Example C-32], for which the pIC50 is 7.41.

Turning to `Nc1nc(-c2ccc(F)cc2F)c(-c2ccc3[nH]nnc3c2)c2nc(C(F)(F)F)nn12` [Example C-34], the pIC50 was 7.13.

For `CCc1nc2c(-c3cc(C)nc(C(F)(F)F)c3)c(-c3ccccc3F)nc(N)n2n1` [Example C-35], the pIC50 is 8.38.

Take `CCc1nc2c(-c3cc(C)nc(C(F)(F)F)c3)c(-c3ccc(F)cc3F)nc(N)n2n1` [Example C-36]: the pIC50 was 8.10.

With `CCc1nc2c(-c3ccc4nn[nH]c4c3)c(-c3ccccc3F)nc(N)n2n1` [Example C-37], the negative logarithm of the IC50 (pIC50) was 8.33.

As to `CCc1nc2c(-c3ccc4nn[nH]c4c3)c(-c3ccc(F)cc3F)nc(N)n2n1` [Example C-38], the pIC50 was 7.82.

On to `COc1cc(F)ccc1-c1nc(N)n2nc(C)nc2c1-c1cc(C)nc(C(F)(F)F)c1` [Example C-39], for which the pIC50 is 7.96.

For the compound `Cc1cc(-c2c(-c3ccc(F)cc3)nc(N)n3nc(C(F)(F)F)nc23)cc(C(F)(F)F)n1` [Example C-40], the pIC50 was 7.35.

Turning to `Nc1nc(-c2ccc(F)cc2)c(-c2ccc3[nH]nnc3c2)c2nc(C(F)(F)F)nn12` [Example C-42], the pIC50 is 8.00.

Turning to `Cc1cc(-c2c(-c3ccc(F)cc3)nc(N)n3nc(CO)nc23)cc(Cl)n1` [Example C-44], the pIC50 was 9.17.

Consider `Nc1nc(-c2ccc(F)cc2)c(-c2ccc3nn[nH]c3c2)c2nc(CO)nn12` [Example C-45], for which the pIC50 is 8.69.

With `Cc1cc(-c2c(-c3ccc(C)o3)nc(N)n3nc(C(F)(F)F)nc23)cc(C(F)(F)F)n1` [Example C-47], the pIC50 was 7.87.

`Cc1ccc(-c2nc(N)n3nc(C(F)(F)F)nc3c2-c2ccc3[nH]nnc3c2)o1` [Example C-48]: the pIC50 is 7.95.

For `Cc1nc2c(-c3ccc4[nH]nnc4c3)c(-c3ccc(F)cc3F)nc(N)n2n1` [Example C-49], the negative-log IC50 (pIC50) was 7.30.

`COc1ccccc1-c1nc(N)n2nc(CO)nc2c1-c1cc(C)nc(C(F)(F)F)c1` [Example C-50]: the pIC50 was 8.27.

`Cc1cc(-c2c(-c3ccc(F)cc3F)nc(N)n3nc(C)nc23)cc(C(F)(F)F)n1` [Example C-51]: the pIC50 is 7.87.

For `Cc1cc(-c2c(-c3ccccc3F)nc(N)n3nc(CO)nc23)cc(C(F)(F)F)n1` [Example C-52], the pIC50 is 8.76.

With `Cc1cc(-c2c(-c3ccc(F)cc3F)nc(N)n3nc(CO)nc23)cc(C(F)(F)F)n1` [Example C-53], the pIC50 was 8.11.

In the case of `Cc1cc(-c2c(-c3ccc(F)cc3)nc(N)n3nc(C)nc23)cc(Cl)n1` [Example C-54], the pIC50 is 8.97.

As for `Cc1cc(-c2c(-c3ccc(F)cc3)nc(N)n3nc(CO)nc23)cc(C)n1` [Example C-55], the pIC50 was 9.07.

For `Cc1nc2c(-c3ccc4[nH]nnc4c3)c(-c3ccc(F)cc3)nc(N)n2n1` [Example C-59], the pIC50 was 8.00.

Regarding `Cc1cc(-c2c(-c3ccc(F)cc3)nc(N)n3nc(C#N)nc23)cc(C)n1` [Example C-62], the pIC50 is 9.08.

`Cc1cc(-c2c(-c3ccn(C)n3)nc(N)n3nc(C(F)(F)F)nc23)cc(C(F)(F)F)n1` [Example C-63]: the pIC50 is 8.14.

Consider `Cc1cc(-c2c(-c3ccn(C)n3)nc(N)n3nc(C)nc23)cc(C(F)(F)F)n1` [Example C-64], for which the pIC50 is 9.44.

For `Cc1cc(-c2c(-c3ccc(F)cc3)nc(N)n3nc(CN(C)C)nc23)cc(Cl)n1` [Example C-65], the pIC50 was 9.08.

In the case of `Cc1cc(-c2c(-c3ccc(C)o3)nc(N)n3nc(CO)nc23)cc(C(F)(F)F)n1` [Example C-66], the pIC50 was 9.10.

Consider `Cc1cc(-c2c(-c3ccc(C)o3)nc(N)n3nc(CO)nc23)cc(Cl)n1` [Example C-67], for which the pIC50 is 9.59.

`COCCOCc1nc2c(-c3cc(C)nc(C(F)(F)F)c3)c(-c3ccc(F)cc3)nc(N)n2n1` [Example C-68]: the pIC50 is 9.19.

Consider `COCCOCc1nc2c(-c3cc(C)nc(Cl)c3)c(-c3ccc(F)cc3)nc(N)n2n1` [Example C-69], for which the pIC50 was 7.27.

Regarding `Cc1cc(-c2c(-c3ccc(F)cc3)nc(N)n3nc(CO[C@H]4CCOC4)nc23)cc(Cl)n1` [Example C-70], the pIC50 is 9.23.

Take `Cc1cc(-c2c(-c3ccc(F)cc3)nc(N)n3nc(CO[C@H]4CCOC4)nc23)cc(C(F)(F)F)n1` [Example C-71]: the pIC50 was 9.09.

`Cc1cc(-c2c(-c3ccc(C)o3)nc(N)n3nc(CO[C@H]4CCOC4)nc23)cc(C(F)(F)F)n1` [Example C-72]: the pIC50 was 9.80.

For the compound `Cc1cc(-c2c(-c3ccc(F)cc3)nc(N)n3nc(C#N)nc23)cc(Cl)n1` [Example C-73], the pIC50 is 8.76.

As for `Cc1cc(-c2c(-c3ccc(C)o3)nc(N)n3nc(C#N)nc23)cc(C(F)(F)F)n1` [Example C-74], the pIC50 is 8.76.

Take `Cc1cc(-c2c(-c3ccc(F)cc3)nc(N)n3nc(C(C)(C)O)nc23)cc(C(F)(F)F)n1` [Example C-75]: the pIC50 was 8.69.

`Cc1cc(-c2c(-c3ccc(F)cc3)nc(N)n3nc(C#N)nc23)cc(C(F)(F)F)n1` [Example C-76]: the pIC50 was 8.25.

Regarding `CC(C)(O)c1nc2c(-c3cc(Cl)nc(C(F)(F)F)c3)c(-c3ccc(F)cc3)nc(N)n2n1` [Example C-77], the pIC50 is 8.16.

For the compound `Cc1cc(-c2c(-c3ccc(F)cc3)nc(N)n3nc(C(C)(C)O)nc23)cc(Cl)n1` [Example C-78], the pIC50 was 9.11.

Take `N#Cc1nc2c(-c3cc(Cl)nc(C(F)(F)F)c3)c(-c3ccc(F)cc3)nc(N)n2n1` [Example C-79]: the pIC50 is 7.77.

In the case of `Cc1cc(-c2c(-c3ccccc3)nc(N)n3nc(C(=O)O)nc23)cc(C(F)(F)F)n1` [Example C-80], the pIC50 was 8.74.
